Assay results: PubChem BioAssay AID248 (DTP/NCI, 2004)
“And” between values parts separate entries of the source, which are not always exact repeats. Identical values can stand only once. Toxic doses and inconclusive results are not listed. Cut-off read from the data, not from the text of the source: active = T/C of 150% or more; inactive = T/C below 125%.

System: L1210 leukemia ip in BDF1 mice, survival T/C
Test: NCI In Vivo Anticancer Drug Screen. Data for tumor model L1210 Leukemia (intraperitoneal) in B6D2F1 (BDF1) mice
Conditions: endpoint: mean survival time, higher = longer survival
Procedure, shortened: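 In this screen, tumor-bearing mice given compound are compared to those given vehicle, and their survival values are reported as a treated-to-control quotient.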

[1] = dose: 100.0 mg/kg/injection, schedule: Q04DX003 (ip), vehicle: Klucel (hydroxypropylcellulose) (HPC)
[2] = dose: 200.0 mg/kg/injection, schedule: Q04DX003 (ip), vehicle: Klucel (hydroxypropylcellulose) (HPC)
[3] = dose: 400.0 mg/kg/injection, schedule: Q04DX003 (ip), vehicle: Klucel (hydroxypropylcellulose) (HPC)
[4] = dose: 100.0 mg/kg/injection, schedule: Q01DX009 (ip), vehicle: saline with Tween-80
[5] = dose: 100.0 mg/kg/injection, schedule: Q04DX003 (ip), vehicle: saline with Tween-80
[6] = dose: 400.0 mg/kg/injection, schedule: Q01DX009 (ip), vehicle: saline with Tween-80

Measured: T/C

CCCCNC(=O)c1cc(Cl)cc(Cl)c1Br
inactive: dose: 100.0 mg/kg/injection, schedule: Q01DX001 (ip), vehicle: saline with Tween-80 91 % of control | dose: 200.0 mg/kg/injection, schedule: Q01DX001 (ip), vehicle: saline with Tween-80 90 % of control | dose: 400.0 mg/kg/injection, schedule: Q01DX001 (ip), vehicle: saline with Tween-80 93 % of control

CC(CCl)N(CCCl)Cc1cccc(Nc2ncnc3nc[nH]c23)c1 (stereo unspecified)
inactive: dose: 1.1 mg/kg/injection, schedule: Q01DX015 (ip), vehicle: saline 122 % of control | dose: 1.8 mg/kg/injection, schedule: Q01DX015 (ip), vehicle: saline 112 % of control | dose: 3.0 mg/kg/injection, schedule: Q01DX015 (ip), vehicle: saline 109 % of control | dose: 4.4 mg/kg/injection, schedule: Q01DX001 (ip), vehicle: saline 120 % of control | dose: 5.0 mg/kg/injection, schedule: Q01DX001 (ip), vehicle: saline 121 % of control | dose: 5.0 mg/kg/injection, schedule: Q01DX015 (ip), vehicle: saline 102 % of control | dose: 6.6 mg/kg/injection, schedule: Q01DX001 (ip), vehicle: saline 120 % of control | dose: 20.0 mg/kg/injection, schedule: Q01DX001 (ip), vehicle: saline 117 % of control

CNNC(=O)CCc1ccccc1
inactive: dose: 10.0 mg/kg/injection, schedule: Q01DX009 (ip), vehicle: saline 103 % of control | dose: 20.0 mg/kg/injection, schedule: Q01DX009 (ip), vehicle: saline 93 % of control | dose: 40.0 mg/kg/injection, schedule: Q01DX009 (ip), vehicle: saline 90 % of control

O=C(OCc1ccccc1CN1CCCC1)c1ccccc1
inactive: dose: 25.0 mg/kg/injection, schedule: Q01DX001 (ip), vehicle: Klucel (hydroxypropylcellulose) (HPC) 98 % of control | dose: 50.0 mg/kg/injection, schedule: Q01DX001 (ip), vehicle: Klucel (hydroxypropylcellulose) (HPC) 95 % of control | dose: 100.0 mg/kg/injection, schedule: Q01DX001 (ip), vehicle: Klucel (hydroxypropylcellulose) (HPC) 98 % of control and 102 % of control

CC(C)(C#N)CCCCCC(C)(C)C#N
inactive: dose: 50.0 mg/kg/injection, schedule: Q01DX001 (ip), vehicle: saline 100 % of control | dose: 100.0 mg/kg/injection, schedule: Q01DX001 (ip), vehicle: saline 96 % of control | dose: 200.0 mg/kg/injection, schedule: Q01DX001 (ip), vehicle: saline 100 % of control | dose: 400.0 mg/kg/injection, schedule: Q01DX001 (ip), vehicle: saline 97 % of control

CCCCCCCCCCCCCCCCCCNC(=S)N(C)C
inactive: [1] 89 % of control | [2] 86 % of control | [3] 89 % of control

N#CSC/C(Br)=C/Br
inactive: dose: 6.25 mg/kg/injection, schedule: Q01DX009 (ip), vehicle: saline with Tween-80 99 % of control | dose: 12.5 mg/kg/injection, schedule: Q01DX009 (ip), vehicle: saline with Tween-80 96 % of control | dose: 25.0 mg/kg/injection, schedule: Q01DX009 (ip), vehicle: saline with Tween-80 96 % of control

O=C(COc1ccc(Cl)cc1C(=O)O)NCc1cccc2ccccc12
inactive: [1] 97 % of control | [2] 98 % of control | [3] 100 % of control

c1ccc2c(c1)ccc1[nH]c3ccc4ccccc4c3c12
inactive: dose: 12.5 mg/kg/injection, schedule: Q01DX009 (ip), vehicle: Klucel (hydroxypropylcellulose) (HPC) 109 % of control | dose: 25.0 mg/kg/injection, schedule: Q01DX009 (ip), vehicle: Klucel (hydroxypropylcellulose) (HPC) 93 % of control | dose: 25.0 mg/kg/injection, schedule: Q04DX003 (ip), vehicle: Klucel (hydroxypropylcellulose) (HPC) 107 % of control | dose: 50.0 mg/kg/injection, schedule: Q04DX003 (ip), vehicle: Klucel (hydroxypropylcellulose) (HPC) 86 % of control | [1] 97 % of control

O=C(O)CSC(CC(=O)O)C(=O)O (stereo unspecified)
inactive: dose: 100.0 mg/kg/injection, schedule: Q01DX009 (ip), vehicle: saline 107 % of control | dose: 200.0 mg/kg/injection, schedule: Q01DX009 (ip), vehicle: saline 108 % of control | dose: 400.0 mg/kg/injection, schedule: Q01DX009 (ip), vehicle: saline 103 % of control

C1CCC2C[N-]CCC2C1.C1CCC2C[N-]CCC2C1.C1CCC2C[N-]CCC2C1.C1CCC2C[N-]CCC2C1.[Cl][Rh][Cl] (stereo unspecified)
inactive: dose: 0.5 mg/kg/injection, schedule: Q01DX009 (ip), vehicle: Klucel (hydroxypropylcellulose) (HPC) 101 % of control | dose: 1.0 mg/kg/injection, schedule: Q01DX009 (ip), vehicle: Klucel (hydroxypropylcellulose) (HPC) 108 % of control | dose: 2.0 mg/kg/injection, schedule: Q01DX009 (ip), vehicle: Klucel (hydroxypropylcellulose) (HPC) 110 % of control | dose: 2.0 mg/kg/injection, schedule: Q01DX009 (ip), vehicle: citric acid 92 % of control | dose: 3.12 mg/kg/injection, schedule: Q01DX009 (ip), vehicle: saline with Tween-80 105 % of control | dose: 3.12 mg/kg/injection, schedule: Q04DX003 (ip), vehicle: saline with Tween-80 105 % of control | dose: 4.0 mg/kg/injection, schedule: Q01DX009 (ip), vehicle: Klucel (hydroxypropylcellulose) (HPC) 103 % of control | dose: 6.25 mg/kg/injection, schedule: Q04DX003 (ip), vehicle: saline with Tween-80 108 % of control

O=C(Nc1ccccc1C(F)(F)F)c1cccc(C(=O)Nc2ccccc2C(F)(F)F)c1
inactive: [4] 86 % of control | [5] 87 % of control | [6] 88 % of control

COC1OC(COC(c2ccccc2)(c2ccccc2)c2ccccc2)C(O)C(O)C1O (stereo unspecified)
inactive: dose: 50.0 mg/kg/injection, schedule: Q01DX009 (ip), vehicle: Klucel (hydroxypropylcellulose) (HPC) 89 % of control | dose: 100.0 mg/kg/injection, schedule: Q01DX009 (ip), vehicle: Klucel (hydroxypropylcellulose) (HPC) 93 % of control | dose: 200.0 mg/kg/injection, schedule: Q01DX009 (ip), vehicle: Klucel (hydroxypropylcellulose) (HPC) 89 % of control

O=C(Nc1ccc(Cl)cc1[N+](=O)[O-])Oc1ccccc1C(=O)Nc1ccccc1
inactive: [4] 92 % of control | dose: 100.0 mg/kg/injection, schedule: Q04DX002 (ip), vehicle: saline with Tween-80 93 % of control and 95 % of control | [5] 97 % of control | dose: 200.0 mg/kg/injection, schedule: Q01DX009 (ip), vehicle: saline with Tween-80 91 % of control | dose: 200.0 mg/kg/injection, schedule: Q04DX002 (ip), vehicle: saline with Tween-80 98 % of control and 88 % of control | dose: 200.0 mg/kg/injection, schedule: Q04DX003 (ip), vehicle: saline with Tween-80 95 % of control | [6] 89 % of control and 92 % of control | dose: 400.0 mg/kg/injection, schedule: Q04DX002 (ip), vehicle: saline with Tween-80 97 % of control and 91 % of control | dose: 400.0 mg/kg/injection, schedule: Q04DX003 (ip), vehicle: saline with Tween-80 93 % of control
